Reference: patent US11447533B2, “Antimicrobial and anticancer peptides and conjugates and compositions, methods, articles and kits relating thereto” (George Mason Research Foundation, Inc., priority 2018, dated 2022)

Tests used:
[1] = test system: primary lung epithelium cells; experiment: Cytotoxicity (Alamar blue); assay type: cell-based, human; conditions: ~16 hours (overnight), reduced serum conditions
Experimental: FIGS. 11A-11B are graphs showing cytotoxicity against primary lung epithelium cells in serum-free condition. Cells were seeded in complete growth medium (Minimal essential medium supplemented with 10% fetal bovine serum) at near-confluence into a 96-well plate and allowed to settle for 24-hours. Media was then replaced to OptiMEM I reduced serum medium containing peptide or vehicle alone (DBPS) and cells were incubated overnight (16 hours). A resazurin based dye (Alamar blue) was added directly to media and conversion of resazurin to resorufin was evaluated following two hours. % Survival represents the proportion of viable cells in peptide treated cells relative to cells treated with vehicle alone. […] Each peptide was tested in triplicate.
FIG. 12 is a graph showing comparison of toxicities against Lung Primary Epithelial cells and Lung Cancerous Epithelial Cells, derived from H358 cell-line. […] Each peptide was tested in triplicate.
(§1) Cytotoxicity. Cells were seeded in complete growth medium (Minimal Essential Medium, MEMα, supplemented with 10% Fetal Bovine Serum) into a culture-treated 96-well plate at a density of 25000 cells per well. After 24 hours, culture media was aspirated and replaced with media containing the selected peptide. No-serum experiments were conducted in Opti-MEM I reduced serum media (ThermoFisher, 31985062) and 10% serum experiments were performed in complete growth medium. In all cases, DBPS was used as a vehicle only control and buffer to serially dilute the peptides. After exposure to the peptides or vehicle-alone for the defined period, Alamar blue dye (resazurin) was added directly to the media and allowed to incubate for two hours. Following incubation, A570/A600 measurements were made to calculate reduction of resazurin dye to resorufin. A ratio of reduction in treated versus untreated cells was calculated in order to determine overall cell viability. The human cells were always maintained in a 37° C. incubator under 5% CO2.

ESKAPE pathogens = experiment: Antimicrobial efficacy against ESKAPE pathogens (all other than P. aeruginosa); assay type: cell-based; conditions: mammalian serum; susceptible and drug-resistant strains
Experimental: FIG. 8 is a graph showing antimicrobial efficacies of ATRA1-R3W2-HYD (blue), NA-CATH (dark orange) and PMB (green) against selected members of ESKAPE (Enterococcus faecium, Staphylococcus aureus, Klebsiella pneumoniae, Acinetobacter baumannii, Pseudomonas aeruginosa, and Enterobacter) pathogens. Both susceptible and drug-resistant strains were used. All the bacteria, except Pseudomonas aeruginosa, were tested under mammalian serum. P. aeruginosa results were obtained from testing in DPBS. The results are presented as mean of tests in triplicate with error-bars depicting the 95% confidence interval of the mean.
Antimicrobial Studies. The phosphate buffers used for antimicrobial assays were supplemented with non-nitrogenous energy source, 0.1% (w/v) glucose. […]
(§2) Antimicrobial assays in different phosphate buffers and serum were conducted by adapting, with necessary modifications a fast high-throughput method based on Virtual Colony Count technique and later modified by incorporating the use of resazurin. At first serial dilution of a microbial strain in respective buffer was poured in the wells of 96 well polypropylene microplate and was then added with same volume of 2× MHB II supplemented with 80 μg/mL resazurin and incubated at 35° C. in a Gemini EM Microplate Reader (Molecular Devices) overnight with intermittent shaking. […]

[2] = test system: H-358 lung epithelial cancer cells; experiment: Cytotoxicity (Alamar blue); assay type: cell-based, human; conditions: ~6 hours, 10% fetal bovine serum
Experimental: FIG. 12 is a graph showing comparison of toxicities against Lung Primary Epithelial cells and Lung Cancerous Epithelial Cells, derived from H358 cell-line. Non-linear regression analysis of six-hour cytotoxicity data was performed to identify the concentration to achieve 50% lethality (LD50) for each toxic peptide. Each peptide was tested in triplicate.
as §1, with “CO2. […]” for “CO2.”

Pseudomonas aeruginosa = experiment: Antimicrobial efficacy against ESKAPE pathogens; assay type: cell-based
Experimental: Antimicrobial Studies. The phosphate buffers used for antimicrobial assays were supplemented with non-nitrogenous energy source, 0.1% (w/v) glucose. To conduct antimicrobial assays, bacterial strains were first suspended in respective buffers. E. coli (ATCC 25922) and B. cereus (ATCC 11778) were grown in MHB II up to OD600 nm˜1 and stored as frozen stock in 20% glycerol at −80° C. Occasionally they were thawed and enumerated by serial dilution and spreading on MHB II agar plates. The concentrations of the frozen stocks of E. coli and B. cereus strains were 1.0-1.1*10^8 CFU/mL with OD600 nm˜0.8. In case of other bacterial strains, they were grown on the days of experiment up to OD600 nm˜1-1.5 and then adjusted to OD600 nm˜0.8. The growth media of the drug-resistant bacterial strains were supplemented with few of the respective antibiotics against which they are resistant. 200 μL of the 0.8 OD600 nm culture were added to 10 mL of the respective buffer to obtain a suspension which was used to incubate with equal volumes of peptide solution in the same buffer.
as §2, with “shaking. As the microbe grows it reduces non-fluorescent resazurin to fluorescent resorufin and the fluorescent intensity of each well were measured (excitation=570 nm, emission=590 nm) each 5 min for 15 hours. The time (t, min) to reach a certain fluorescence (RFU=20000 with respect to the starting fluorescence) was correlated with the initial bacterial concentration (in CFU/mL) in the particular well to obtain a calibration plot of the form: Log([Bacteria],CFU/mL)=b+m*t Equation 4:” for “shaking.”
To obtain antimicrobial efficacy of the peptides, 50 μL of serially diluted peptide in a buffer was incubated with 50 μL microbial suspension in the same buffer for 3 hours in black polypropylene 96 well plate. After incubation the wells were added with 100 μL of 2× MHB II supplemented with 80 μg/mL resazurin and then incubated with continuous fluorescence reading for overnight time period as described earlier. The surviving microbial population (CFU/mL) in each well were calculated by first finding the time to reach a fluorescence of RFU=20000 and the correlation (4) for the specific microbial strain and buffer. % Survival represents the proportion of viable cells in peptide treated cells relative to cells treated with the respective buffer alone. Equation 5: […]
Finally, the antimicrobial effectiveness of each peptide against the particular microbial strain in the specific buffer was determined by plotting % microbial survival as a function of the log of the concentration of the peptide and fitting the resulting data to a variable-slope sigmoidal regression model (equation 6). […]
ATRA1-R3W2-HYD, NA-CATH and PMB were evaluated for their effectiveness in mammalian serum conditions against pathogenic bacteria of both normal and drug-resistant strains. […]

Sequence: RRWKRFFKRWKGGVIGVTFPF (SEQ ID NO: 50) [ATRA1-R3W2-HYD, ATRA1-R3W2 with hydrophobic tail of NA-CATH joined by -GG-]
- concentration decreasing resazurin reduction by 50% (LD50) [1]: ~50 µM
- concentration over which significant toxicity was observed [1]: ~50 µM
- antimicrobial effectiveness, in words (ESKAPE pathogens): highly effective, though in lower degree than PMB
- LD50 [2]: ~24.5 µM
- antimicrobial effectiveness, in words (Pseudomonas aeruginosa; DPBS): good bactericidal properties
- antimicrobial effectiveness, in words (Pseudomonas aeruginosa; mammalian serum): did not demonstrate antimicrobial effectiveness
